The test system of assay [1] is phosphorylated STAT1 in B16-F10 cells. Briefly: Phospho-STAT1 (Tyr701) HTRF assay in B16-F10 cells with IFN-gamma. The format is cell-based. The conditions noted are these: mouse IFN-gamma 100 ng/mL, 1 hour, read-out: pSTAT1 HTRF B16F10 EC50. How it is done:
B16-F10 cells (ATCC, Manassas, VA, #CRL-6475) were cultured in DMEM growth medium (ThermoFisher Scientific, Waltham, MA, #11995-040) supplemented with 10% heat-inactivated FBS (ThermoFisher Scientific, #16140-071) and 1% pen/strep (ThermoFisher Scientific, #15140-122). The cells were seeded into a white opaque 384-well tissue culture treated microplate (PerkinElmer, Waltham, MA, #6007688) at a density of 10,000 cells/well in 20 uL total volume and incubated overnight at 37 C and 5% CO2. 30 nL of compounds dissolved in DMSO were then transferred from a source plate into target wells with the Echo650 acoustic liquid handler (Beckman Coulter, Indianapolis, IN). Negative control wells received 30 nL of DMSO only (0.15% final concentration). Plates were returned to the incubator for 1 hour and then cells were treated with either 5 uL of growth medium or 5 uL of growth medium containing 500 ng/mL of recombinant mouse IFN-gamma protein (R&D Systems, Minneapolis, MN, #485-MI/CF, 100 ng/mL final concentration) using the Assist automated pipetting platform (INTEGRA Biosciences, Hudson, NH). Plates were incubated at 37 C for 1 hour and assayed for phosphorylated STAT1 protein levels with the phospho-STAT1 (Tyr701) HTRF kit (Cisbio, Bedford, MA, #63ADK026PEH) according to the manufacturer's instructions.

Assay [2] has as its target T1, PTPN2 (Homo sapiens (Human), UniProt P17706). Description: PhosphoSens assay (PTPN2 BCHEM). In kind it is biochemical. The settings on record: substrate AQT0264 20 μM, PTPN2 150 pM. How it is done:
A PhosphoSens® kinase assay was performed as described by the vendor (AssayQuant Technologies, Marlborough, MA). Briefly, 1000× solutions of compounds were prepared in DMSO via serial dilution of the 10 mM DMSO stocks using 3-fold intervals in a 384-well reagent plate. 50 nL of the compound dilution series was then added to the corresponding wells of a 384-well assay plate. […] Finally, […] of 5× PTPN2 enzyme stock was added to each well of the assay plate for a final enzyme concentration of 150 pM. Reaction progress curves were collected by sampling fluorescence intensity at the excitation wavelength 360 nm (λex360) and emission wavelength 480 nm (λem480) every 71 seconds for one hour using a Synergy H4 plate reader (BioTek Instruments/Agilent Technologies, Winooski, VT) at room temperature.
Target sequence in this assay (P17706 whole entry): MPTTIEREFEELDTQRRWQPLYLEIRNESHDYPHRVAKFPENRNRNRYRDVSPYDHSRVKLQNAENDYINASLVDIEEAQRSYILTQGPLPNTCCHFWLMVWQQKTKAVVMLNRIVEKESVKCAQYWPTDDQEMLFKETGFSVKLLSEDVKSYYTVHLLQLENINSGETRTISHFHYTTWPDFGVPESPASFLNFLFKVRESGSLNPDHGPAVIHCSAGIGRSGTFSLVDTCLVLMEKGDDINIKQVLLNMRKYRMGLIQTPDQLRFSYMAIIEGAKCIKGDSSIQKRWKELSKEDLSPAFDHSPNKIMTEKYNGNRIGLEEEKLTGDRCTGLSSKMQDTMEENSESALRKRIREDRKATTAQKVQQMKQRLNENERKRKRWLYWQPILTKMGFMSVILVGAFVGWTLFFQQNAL

The next assay deals with B16-F10 cells. Briefly: Cell proliferation assay (CellTiter-Glo) in B16-F10 cells with IFN-gamma. The conditions noted are these: 120 h, mouse IFN-gamma 10 ng/mL, read-out: PTPN2 Prolif 5d B16F10 EC50. The format is cell-based. In general terms: Cellular ATP, detected with luciferase, serves as a proxy for viable cell number.
Assay [3] has as its target T1, PTPN2. Description: Phosphatase activity assay using DiFMUP as substrate. In kind it is biochemical. The settings on record: PTPN2 0.15 nM, 10 mM DTT. The procedure: The PTPN2 biochemical assay was performed as follows, a 5× stock solution of human PTPN2 (SRP5075, MilliporeSigma, Burlington, MA) and a 1.25× stock solution of DiFMUP (D6567, ThermoFisher Scientific, Waltham, MA), were prepared in 1× reaction buffer consisting of 50 mM HEPES, pH 7.4, 1 mM EDTA, 150 mM NaCl, 0.2 mg/mL BSA, 100 U/mL catalase and 10 mM DTT. […] of the DiFMUP substrate solution, for a final concentration of […] DiFMUP substrate, was added to a Corning 3574 384-well, white, non-binding surface microtiter plate containing […] of serially diluted test compounds prepared in DMSO. The reactions were started with the addition of […] of the enzyme solution, for a final PTPN2 concentration of 0.15 nM, and monitored every 105 seconds for 60 minutes at λEX 360/λEM 460 in a BioTek Synergy HTX plate reader (Agilent Technologies, Santa Clara, CA) at room temperature. The initial linear portions of the progress curves were fit according to a linear equation to yield the slopes and converted to % inhibition based on a value of 100% activity for the no inhibitor treated control. IC50 values of each compound were obtained by fitting the % inhibition-compound concentration curves using Dotmatics software (Dotmatics, Bishops Stortford, Hertfordshire, England),
Target sequence in this assay (P17706 other isoform, or with tags, fused parts or gaps isoform P17706-2): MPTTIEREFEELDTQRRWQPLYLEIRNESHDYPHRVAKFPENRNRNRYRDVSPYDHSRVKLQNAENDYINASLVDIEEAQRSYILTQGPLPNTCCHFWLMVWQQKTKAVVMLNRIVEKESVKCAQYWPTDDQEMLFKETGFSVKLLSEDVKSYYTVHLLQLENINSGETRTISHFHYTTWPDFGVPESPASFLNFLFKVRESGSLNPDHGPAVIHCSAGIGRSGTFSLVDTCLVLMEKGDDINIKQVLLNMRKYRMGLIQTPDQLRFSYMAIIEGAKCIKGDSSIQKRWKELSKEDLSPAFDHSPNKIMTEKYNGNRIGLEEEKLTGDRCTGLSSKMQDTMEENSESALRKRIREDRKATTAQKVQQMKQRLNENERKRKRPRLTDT

pEC50, pIC50: −log10 of the molar value.

Take `Cc1cc(C)nc(NCc2cc(O)c(N3CC(=O)NS3(=O)=O)c(F)c2)c1` [EXAMPLE 5, 5-[4-[[(4,6-dimethyl-2-pyridyl)amino]methyl]-2-fluoro-6-hydroxy-phenyl]-1,1-dioxo-1,2,5-thiadiazolidin-3-one]: the pEC50 (usually −log10 of the EC50, conventionally taken in molar units) in assay [1] was 7.52; in the assay with B16-F10 cells, 7.30. Moreover, the pIC50 on PTPN2 [2] and at PTPN2 [3] was 9.00 throughout.
In the case of `CC(C)(C)c1ccc(NCc2cc(O)c(N3CC(=O)NS3(=O)=O)c(F)c2)nc1` [EXAMPLE 4, 5-[4-[[(5-tert-butyl-2-pyridyl)amino]methyl]-2-fluoro-6-hydroxy-phenyl]-1,1-dioxo-1,2,5-thiadiazolidin-3-one], the negative-log EC50 (pEC50) in assay [1] was 5.99; in the assay with B16-F10 cells, 6.17. The results for the negative-log IC50 (pIC50) at PTPN2 [2] and on PTPN2 [3] were 7.52 and 8.10, respectively.
In the case of `Cc1ccc(NCc2cc(O)c(N3CC(=O)NS3(=O)=O)c(F)c2)nc1C` [EXAMPLE 19, 5-[4-[[(5,6-dimethyl-2-pyridyl)amino]methyl]-2-fluoro-6-hydroxy-phenyl]-1,1-dioxo-1,2,5-thiadiazolidin-3-one], the negative-log EC50 (pEC50) is 6.51 in assay [1] and 6.72 with B16-F10 cells. For the same compound, the pIC50 (as a rule, the IC50 on a negative log10 scale, so that one unit is a factor of ten) was 8.70 on PTPN2 [2] and 8.30 on PTPN2 [3].
`Cc1ccnc(NCc2cc(O)c(N3CC(=O)NS3(=O)=O)c(F)c2)c1` [EXAMPLE 7, 5-[2-fluoro-6-hydroxy-4-[[(4-methyl-2-pyridyl)amino]methyl]phenyl]-1,1-dioxo-1,2,5-thiadiazolidin-3-one]: the pEC50 in assay [1] is 6.74; in the assay with B16-F10 cells, 6.77. Moreover, the pIC50 at PTPN2 [2] is 8.30; on PTPN2 [3] it was 8.52.
Turning to `COc1cc(C)nc(NCc2cc(O)c(N3CC(=O)NS3(=O)=O)c(F)c2)c1` [EXAMPLE 41, 5-[2-fluoro-6-hydroxy-4-[[(4-methoxy-6-methyl-2-pyridyl)amino]methyl]phenyl]-1,1-dioxo-1,2,5-thiadiazolidin-3-one], the negative-log EC50 (pEC50) is 7.23 in assay [1] and 7.30 in the assay with B16-F10 cells. The negative logarithm of the IC50 (pIC50) at PTPN2 [3] is 8.70.
For the compound `O=C1CN(c2c(O)cc(CNc3cccc(OC(F)F)n3)cc2F)S(=O)(=O)N1` [EXAMPLE 43, 5-[4-[[[6-(difluoromethoxy)-2-pyridyl]amino]methyl]-2-fluoro-6-hydroxy-phenyl]-1,1-dioxo-1,2,5-thiadiazolidin-3-one], the pEC50 is less than 4.82 in assay [1] and 5.18 in the assay with B16-F10 cells. The pIC50 on PTPN2 [3] was 6.96.
Consider `O=C1CN(c2c(O)cc(CNc3cccc(C(F)F)n3)cc2F)S(=O)(=O)N1` [EXAMPLE 42, 5-[4-[[[6-(difluoromethyl)-2-pyridyl]amino]methyl]-2-fluoro-6-hydroxy-phenyl]-1,1-dioxo-1,2,5-thiadiazolidin-3-one], for which the pEC50 in assay [1] is 5.33; in the assay with B16-F10 cells, 6.80. Also, the pIC50 on PTPN2 [3] was 7.40.
In the same order, the values of `COc1cc(C)cc(NCc2cc(O)c(N3CC(=O)NS3(=O)=O)c(F)c2)n1` [EXAMPLE 39, 5-(2-fluoro-6-hydroxy-4-(((6-methoxy-4-methylpyridin-2-yl)amino)methyl)phenyl)-1,2,5-thiadiazolidin-3-one 1,1-dioxide] are 5.71, 5.33 and 6.85.
In the same order, the values of `Cc1cc(NCc2cc(O)c(N3CC(=O)NS3(=O)=O)c(F)c2)nc(N2CCOCC2)c1` [EXAMPLE 49, 5-(2-fluoro-6-hydroxy-4-(((4-methyl-6-morpholinopyridin-2-yl)amino)methyl)phenyl)-1,2,5-thiadiazolidin-3-one 1,1-dioxide] are 5.32, 4.83 and 7.70.
Consider `COc1ccc(C)c(NCc2cc(O)c(N3CC(=O)NS3(=O)=O)c(F)c2)n1` [EXAMPLE 29, 5-[2-fluoro-6-hydroxy-4-[[(6-methoxy-3-methyl-2-pyridyl)amino]methyl]phenyl]-1,1-dioxo-1,2,5-thiadiazolidin-3-one], for which the values for the pEC50 (in assay [1]; with B16-F10 cells) were 5.13 and 5.04, respectively. The pIC50 on PTPN2 [3] is 8.30.
`Cc1cc(Br)nc(NCc2cc(O)c(N3CC(=O)NS3(=O)=O)c(F)c2)c1` [EXAMPLE 48, 5-(4-(((6-bromo-4-methylpyridin-2-yl)amino)methyl)-2-fluoro-6-hydroxyphenyl)-1,2,5-thiadiazolidin-3-one 1,1-dioxide]: the pEC50 in assay [1] is 5.51; in the assay with B16-F10 cells, 5.34. Moreover, the negative logarithm of the IC50 (pIC50) on PTPN2 [3] was 7.40.
Consider `O=C1CN(c2c(O)cc(CNc3cccc(=O)[nH]3)cc2F)S(=O)(=O)N1` [EXAMPLE 51, 5-(2-fluoro-6-hydroxy-4-(((6-oxo-1,6-dihydropyridin-2-yl)amino)methyl)phenyl)-1,2,5-thiadiazolidin-3-one 1,1-dioxide], for which the figures for the negative logarithm of the EC50 (pEC50) (in assay [1]; in the assay on B16-F10 cells) were 6.70 and 6.22, respectively. Moreover, the pIC50 on PTPN2 [3] is 9.70.
As for `COc1ccnc(NCc2cc(O)c(N3CC(=O)NS3(=O)=O)c(F)c2)c1OC` [EXAMPLE 27, 5-[4-[[(3,4-dimethoxy-2-pyridyl)amino]methyl]-2-fluoro-6-hydroxy-phenyl]-1,1-dioxo-1,2,5-thiadiazolidin-3-one], the pEC50 in assay [1] is less than 4.82; with B16-F10 cells, 5.77. In addition, at PTPN2 [3], the pIC50 is 6.09.
`N#Cc1cccc(NCc2cc(O)c(N3CC(=O)NS3(=O)=O)c(F)c2)n1` [EXAMPLE 40, 6-[[3-fluoro-5-hydroxy-4-(1,1,4-trioxo-1,2,5-thiadiazolidin-2-yl)phenyl]methylamino]pyridine-2-carbonitrile]: the results for the negative logarithm of the EC50 (pEC50) (in assay [1]; with B16-F10 cells) were 5.76 and 5.66, respectively. Moreover, at PTPN2 [3], the pIC50 was 8.30.
In the same order, the values of `Cc1cc(Oc2ccccc2)cc(NCc2cc(O)c(N3CC(=O)NS3(=O)=O)c(F)c2)n1` [EXAMPLE 52, 5-(2-fluoro-6-hydroxy-4-(((6-methyl-4-phenoxypyridin-2-yl)amino)methyl)phenyl)-1,2,5-thiadiazolidin-3-one 1,1-dioxide] are 5.20, 5.48 and 8.00.
Take `CN(C)c1cccc(NCc2cc(O)c(N3CC(=O)NS3(=O)=O)c(F)c2)n1` [EXAMPLE 44, 5-(4-(((6-(dimethylamino)pyridin-2-yl)amino)methyl)-2-fluoro-6-hydroxyphenyl)-1,2,5-thiadiazolidin-3-one 1,1-dioxide]: the pEC50 in assay [1] was 5.31; in the assay on B16-F10 cells it was 5.24. Besides, the negative logarithm of the IC50 (pIC50) at PTPN2 [3] is 8.00.
In the same order, the values of `COc1ccc(OC)c(NCc2cc(O)c(N3CC(=O)NS3(=O)=O)c(F)c2)n1` [EXAMPLE 21, 5-[4-[[(3,6-dimethoxy-2-pyridyl)amino]methyl]-2-fluoro-6-hydroxy-phenyl]-1,1-dioxo-1,2,5-thiadiazolidin-3-one] are 5.02, 5.17 and 7.70.
For `COc1cc(NCc2cc(O)c(N3CC(=O)NS3(=O)=O)c(F)c2)nc(OC)c1` [EXAMPLE 18, 5-[4-[[(4,6-dimethoxy-2-pyridyl)amino]methyl]-2-fluoro-6-hydroxy-phenyl]-1,1-dioxo-1,2,5-thiadiazolidin-3-one] the same measures were 6.17, 6.17 and 7.70.

These data come from US20240180886A1, “INHIBITORS OF PROTEIN TYROSINE PHOSPHATASE, COMPOSITIONS, AND METHODS OF USE” (BRISTOL-MYERS SQUIBB COMPANY, priority 2022, published 2024).
